The values below come from patent US6936609B2, “Imidazotriazines for use as phosphodiesterase inhibitors” (Bayer HealthCare AG, priority 2001, dated 2005).

pIC50: −log10 of the molar value.

One data set concerns the target T1, PDE 10A (Homo sapiens, UniProt Q9Y233).
T1 construct: is expressed recombinantly in full length in Sf9 insect cells; made in house; host or cells: Sf9 insect cells (Bac-to-Bac baculovirus system); lysate supernatant used as the enzyme preparation
Description: Inhibition of PDE 10A (in vitro enzyme inhibition test). The class given is biochemical. Particulars: recombinant full-length PDE10A expressed in Sf9 insect cells; substrate [5',8-3H] adenosine 3',5'-cyclic phosphate; 60 min at room temperature; scintillation proximity beads. The protocol:
PDE10A (WO 01/29 199, FIG. 1A) is expressed recombinantly in full length in Sf9 insect cells (Invitrogen, Carlsbad, Calif.) with the aid of the Bac-to-Bac™ Baculovirus expression system of Life Technologies (Gaithersburg, Md.). 48 h after the infection, the cells are harvested and suspended in 20 ml (per 1 l of culture) of lysis buffer (50 mM tris HCl, pH 7.4, 50 mM NaCl, 1 mM MgCl2, 1.5 mM EDTA, 10% glycerol plus 20 μl of Protease Inhibitor Cocktail Set III [CalBiochem, La Jolla, Calif. USA]). The cells are treated at 4° C. for 1 minute with ultrasound and subsequently centrifuged at 10000 rpm for 30 minutes at 4° C. The supernatant (PDE10A preparation) was collected and stored at −20° C.
The test substances are dissolved and serially diluted in 100% DMSO for the determination of their in vitro action on PDE 10A. Typically, dilution series of 200 μM to 1.6 μM are prepared (resulting final concentrations in the test: 4 μM to 0.032 μM). In each case, 2 μl of the diluted substance solutions are introduced into the wells of microtitre plates (Isoplate; Wallac Inc., Atlanta, Ga.). 50 μl of a dilution of the PDE10A preparation described above are subsequently added. The dilution of the PDE10A preparation is chosen such that during the later incubation less than 70% of the substrate is reacted (typical dilution: 1:10000; dilution buffer: 50 mM tris/HCl pH 7.5, 8.3 mM MgCl2, 1.7 mM EDTA, 0.2% BSA). The substrate, [5′,8-^3H] adenosine 3′, 5′-cyclic phosphate (1 μCi/μl; Amersham Pharmacia Biotech., Piscataway, N.J.) is diluted 1:2000 to a concentration of 0.0005 μCi/μl with assay buffer (50 mM tris/HCl pH 7.5, 8.3 mM MgCl2, 1.7 mM EDTA). The enzyme reaction is finally started by addition of 50 μl (0.025 μCi) of the diluted substrate. The test batches are incubated at room temperature for 60 min and the reaction is stopped by addition of 25 μl of a suspension containing 18 mg/ml of Yttrium Scintillation Proximity Beads (Amersham Pharmacia Biotech., Piscataway, N.J.). The microtitre plates are sealed using a film and allowed to stand at room temperature for 60 min. The plates are subsequently measured for 30 s per well in a Microbeta scintillation counter (Wallac Inc., Atlanta, Ga.). IC50 values are determined with the aid of graphic plotting of the substance concentration against the percentage inhibition.
A general note: In a scintillation proximity assay essentially only radioactivity close to the scintillant gives light.

T1 sequence (Q9Y233 1-779 isoform Q9Y233-1): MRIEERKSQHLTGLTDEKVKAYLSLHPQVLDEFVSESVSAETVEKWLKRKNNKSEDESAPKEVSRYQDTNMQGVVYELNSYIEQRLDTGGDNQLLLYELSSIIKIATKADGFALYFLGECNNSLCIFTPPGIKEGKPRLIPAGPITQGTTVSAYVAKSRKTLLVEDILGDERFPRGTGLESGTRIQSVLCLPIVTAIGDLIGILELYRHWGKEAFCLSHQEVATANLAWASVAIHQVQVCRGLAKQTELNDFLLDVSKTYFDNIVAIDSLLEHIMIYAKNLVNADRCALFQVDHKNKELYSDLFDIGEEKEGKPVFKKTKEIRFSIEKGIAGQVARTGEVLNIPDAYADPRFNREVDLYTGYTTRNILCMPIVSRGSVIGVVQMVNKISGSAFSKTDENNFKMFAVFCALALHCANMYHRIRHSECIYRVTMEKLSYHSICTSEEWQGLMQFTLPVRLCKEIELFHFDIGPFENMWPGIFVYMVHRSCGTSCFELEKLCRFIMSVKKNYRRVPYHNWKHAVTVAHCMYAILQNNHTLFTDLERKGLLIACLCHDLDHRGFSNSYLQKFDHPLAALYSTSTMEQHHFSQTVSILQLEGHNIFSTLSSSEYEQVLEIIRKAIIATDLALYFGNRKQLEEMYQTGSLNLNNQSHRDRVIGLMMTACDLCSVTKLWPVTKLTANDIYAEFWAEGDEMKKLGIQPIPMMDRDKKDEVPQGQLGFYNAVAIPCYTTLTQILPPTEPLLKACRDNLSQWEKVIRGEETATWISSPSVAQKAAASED

One may read the pIC50 as −log10 of the IC50, conventionally taken in molar units. Broadly, the melting point is the temperature, or range, at which the solid turns liquid. Consider `COc1cc(Nc2nc(-c3ccc(C)cc3)nn3c(C)nc(C)c23)cc(OC)c1OC` [Example 53, N-[5,7-Dimethyl-2-(4-methylphenyl)imidazo[5,1-f][1,2,4]triazin-4-yl]-N-(3,4,5-trimethoxyphenyl)amine], for which the melting point lay within 212 to 214 °C. The pIC50 at PDE 10A is 7.35.

Compound `COc1ccc(Nc2nc(-c3ccc(OC)c(OC)c3)nn3c(C4CCCC4)nc(C)c23)c(OC)c1` [Example 18, N-[7-Cyclopentyl-2-(3,4-dimethoxyphenyl)-5-methylimidazo[5,1-f][1,2,4]triazin-4-yl]-N-(2,4-dimethoxyphenyl)amine] registered a melting point of 244 °C. The pIC50 on PDE 10A is 7.04.

Compound `COc1cc(Nc2nc(-c3ccc(Br)cc3)nn3c(C)nc(C)c23)cc(OC)c1OC` [Example 48, N-[2-(4-Bromophenyl)-5,7-dimethylimidazo[5,1-f][1,2,4]triazin-4-yl]-N-(3,4,5-trimethoxyphenyl)amine] showed a melting point of 219 to 220 °C. Besides, the pIC50 at PDE 10A is 7.17.

With `COc1ccc(Nc2nc(-c3ccc(OC)c(OC)c3)nn3c(C4CCCC4)nc(C)c23)cc1Cl` [Example 16, N-(3-Chloro-4-methoxyphenyl)-7-cyclopentyl-2-(3,4-dimethoxyphenyl)-5-methyl-imidazo[5,1-f][1,2,4]triazin-4-amine], the pIC50 at PDE 10A is 6.68.

On to `CCCc1nc(C)c2c(Nc3cccc(O)c3)nc(-c3ccccc3OCC)nn12` [Example 43, 3-{[2-(2-Ethoxyphenyl)-5-methyl-7-propylimidazo[5,1-f][1,2,4]triazin-4-yl]-amino}phenol], for which the pIC50 at PDE 10A was 5.62.

On to `COc1ccc(-c2nc(SCc3cccnc3)c3c(C)nc(C4CCCC4)n3n2)cc1OC` [Example 12, 7-Cyclopentyl-2-(3,4-dimethoxyphenyl)-5-methyl-4-[(3-pyridinylmethyl)sulphanyl]-imidazo[5,1-f][1,2,4]triazine], for which the pIC50 on PDE 10A was 6.34.

Regarding `COc1cc(CNc2nc(-c3ccc(OC)c(OC)c3)nn3c(C)nc(C)c23)cc(OC)c1` [Example 3, N-(3,5-Dimethoxybenzyl)-2-(3,4-dimethoxyphenyl)-5,7-dimethylimidazo[5,1-f]-[1,2,4]triazin-4-amine], the pIC50 on PDE 10A is 6.44.

For the compound `COc1ccc(-c2nc(Nc3cc(OC)c(OC)c(OC)c3)c3c(C)nc(C4CCCC4)n3n2)cc1S(=O)(=O)N1CCOCC1` [Example 24, 7-Cyclopentyl-2-[4-methoxy-3-(4-morpholinylsulphonyl)phenyl]-5-methyl-N-(3,4,5-trimethoxyphenyl)imidazo[5,1-f][1,2,4]triazin-4-amine], the pIC50 at PDE 10A was 7.89.

As for `CCCc1nc(C)c2c(NCc3ccc(OC)cc3OC)nc(-c3ccccc3OCC)nn12` [Example 46, N-(2,4-Dimethoxybenzyl)-2-(2-ethoxyphenyl)-5-methyl-7-propylimidazo[5,1-f]-[1,2,4]triazin-4-amine], the melting point lay within 98 to 99 °C.

For the compound `COc1ccc(-c2nc(Nc3ccc(OC)c(OC)c3)c3c(C)nc(C)n3n2)cc1Cl` [Example 33, 2-(3-Chloro-4-methoxyphenyl)-N-(3,4-dimethoxyphenyl)-5,7-dimethylimidazo-[5,1-f][1,2,4]triazin-4-amine], the melting point lay within 220 to 222 °C.
